Results as given in patent US11318157B2, “6-6 bicyclic aromatic ring substituted nucleoside analogues for use as PRMT5 inhibitors” (Janssen Pharmaceutica NV, priority 2015, dated 2022).
Like-named read-outs stand apart in the source and are kept apart here.

What was measured:
PRMT5-MEP50 enzyme = target: T1, PRMT5-MEP50 enzyme (Homo sapiens, UniProt O14744); experiment: In vitro assay 1b: high throughput mass spectrometer assay of SAH formation, 1.25 nM enzyme, 120 min; format: biochemical; settings: averaged values; PRMT5-MEP50, 1.25 nM enzyme, 120 min; read-out: pIC50 Assay 1b (converted)
T1 construct: One virus expresses full length human PRMT5 with Flag-tag at N-terminus; Flag (N); purchased Charles River (Argenta); host or cells: insect cells (Sf9), baculovirus co-infection
Source text: Experimental Procedures In Vitro Assay (Assay 1a and 1b)
PRMT5-MEP50 enzyme was purchased from Charles River (Argenta). The enzyme complex was produced in insect cells (Sf9) infected simultaneously with two baculoviruses. One virus expresses full length human PRMT5 with Flag-tag at N-terminus, the second virus expresses full length MEP50 with His6-TEV cleavage at N-terminus. The protein was affinity purified using anti-Flag (M2) beads eluted with 3×FLAG peptide, followed by His-Select eluted with 0.5M imidazole. Eluted protein was then dialysed against tris-buffered saline (TBS) (pH 8.0) containing 20% glycerol and 3 mM dithiothreitol (DTT).
Full-length untagged human recombinant histone H2A (residues 1-130, Genbank Accession #NM_021052 MW=14.1 kDa) expressed in E. coli was purchased from Reaction Biology Corporation, Cat #HMT-11-146. Reagents used for making reaction buffer or stopping reaction were purchased including Tris base (Sigma Cat #T-1503), NaCl (Sigma Cat #RGF-3270), MgCl2 (Sigma Cat #M0250), DTTI (Invitrogen Cat #15508-013) and Formic Acid (Riedel deHaen, Cat #33015)
High Throughput Mass Spectrometer Assay
PRMT5 catalyzes the sequential methylations of the terminal nitrogen atoms on the guanidine groups of arginine residues within proteins using co-substrate S-adenosyl-L-methionine (AdoMet, SAM), forming mono-methyl (MMA), symmetric-dimethyl arginine (sDMA) and S-adenosyl-L-homocysteine (AdoHcy, SAH). The enzyme activity was determined by following the product SAH formation using high throughput mass spectrometry (Agilent Rapidfire 300 System coupled to a Sciex 4000 series QTrap® triple-quad MS/MS). The reaction buffer was 20 mM Tris-HCl, pH 8.5, 50 mM NaCl, 5 mM MgCl2 and 1 mM DTT. The reaction activity was stopped using 1% formic acid (final concentration).
The IC50 Studies were performed using eleven point dosing series made for each compound by serially diluted 1:2 in dimethyl sulfoxide (DMSO), with point 12 being a DMSO control. Compounds were first spotted to plates, and followed by addition of 2 μM SAM and 0.6 μM H2A (histone H2A) solution mixture. The same volume of enzyme solution was added to initiate the enzymatic reactions. The final concentrations of the reaction are at 1 μM SAM, 0.3 μM H2A and 10 nM enzyme (assay 1a) or 1.25 nM enzyme (assay 1b). The reaction was incubated at 30° C. for 60 minutes (min) when 10 nM enzyme was used and for 120 min when 1.25 nM enzyme was used. Subsequently, the reaction was quenched by addition of formic acid to a final concentration of 1%. The inhibitions of SAH formation in the presence of compounds were calculated as a percentage of the control relative to the uninhibited reaction as a function of inhibitor concentration. The data were fit as follows: Y=Bottom+(Top−Bottom)/(1+10^((log IC50−X)*h))
where IC50 is the inhibitor concentration (same unit as X) at 50% inhibition and h is the Hill slope. Y is percent of inhibition, X is log of compound concentration. Bottom and Top are the plateaus in same units as Y.

[1] = tested on: nuclear symmetric Arginine dimethylation in A549 cells; experiment: PD assay (assay 2): inhibition of nuclear symmetric Arginine dimethylation (SYM10 immunohistochemistry), 48 h; format: cell-based; settings: Homo sapiens
Experimental: Experimental Procedure PD Assay (Assay 2)
A549 cells (ATCC, Cat #CCL-185) were cultured in Dulbecco's Modified Eagle's Medium (DMEM) (Sigma, Cat #D5796), supplemented with 10% Fetal Calf Serum (FCS) (HyClone™, Cat #SV30160.03), 100 mM Sodium Pyruvate (Sigma, Cat #S8636), 200 mM L-Glutamine (Sigma, Cat #G7513) and 50 mg/mL gentamycin (Gibco, Cat #15750-037).
Reagents used for buffers were purchased: Dulbecco's phosphate buffered saline (DPBS) without Ca/Mg (Sigma, Cat #D8537), phosphate buffered saline (PBS) 10× (Roche, Cat #11 666 789 001), Formalin solution 10% (Sigma, HT50-1-128-4L), Methanol 100% (Sigma, Cat #32213-2.5L), Triton X-100 (Acros, Cat #215680010), Bovine Serum Albumin (BSA) (Sigma, Cat #A2153), Alexa fluor 488 goat anti-rabbit antibody (Life Technologies, Cat #A11034), HCS CellMask Deep Red Stain (Life Technologies, Cat #H32721), Hoechst Stain (Life Technologies, Cat #33258), Anti-dimethyl-Arginine, sym (SYM10) antibody (Millipore, 07-412).
Immunohistochemistry Procedure
Cells were plated at 400 cells/40 μL/well in 384 well black μplates clear bottom (Perkin Elmer) and overnight incubated at 37° C., 5% CO2. […] 80 nL of the respective dilution of the compounds was added using the Labcyte POD 810 (Labcyte) reaching a final DMSO concentration of 0.2% in cell culture. After an incubation period of 48 h at 37° C. and 5% CO2, cells were fixed in 10% formalin solution for 15 min at room temperature and 20 min in ice-cold methanol, after which they were washed 3× in DPBS. Subsequently, the cells were blocked for 1 h in blocking buffer (PBS+1% BSA and 0.5% Triton X-100) and incubated overnight at 4° C. with the SYM10 antibody diluted 1/2000 in blocking buffer. The cells were washed 3× with washing buffer (PBS+0.1% Triton X-100) and incubated with the Alexa fluor 488 goat anti-rabbit antibody diluted 1/200 in blocking buffer for 1 h at room temperature. Subsequently, they were washed 3× with washing buffer and incubated for 30 min at room temperature with PBS containing a 1/5000 dilution of Hoechst Stain and a 1/5000 dilution of the HCS CellMask Deep Red Stain. After a final wash with PBS, the plates were imaged using the 10×W lens of the Opera® system (Perkin Elmer Life Sciences) using following settings (values in nm):
In the above equations, the following variable names are used: […]
In the above equations, the following controls were used for normalization: […]
Low control: minimum level of symmetrically dimethylated Arginines (cells treated with reference compound at 10 μM).
High control: maximum level of symmetrically dimethylated Arginines (DMSO treated cells).
IC50 and pIC50 (−log IC50) values were calculated using the appropriate software.
The pIC50 values in the Table below are averaged values (Co. No. means compound number; n.d. means not determined).

[2] = A549, averaged values, PD assay, A549 cells, symmetric Arginine dimethylation, read-out: pIC50 Assay 2 (converted)
[3] = A549, read-out: pIC50 Assay 2 (converted)

T1 sequence (O14744 whole entry): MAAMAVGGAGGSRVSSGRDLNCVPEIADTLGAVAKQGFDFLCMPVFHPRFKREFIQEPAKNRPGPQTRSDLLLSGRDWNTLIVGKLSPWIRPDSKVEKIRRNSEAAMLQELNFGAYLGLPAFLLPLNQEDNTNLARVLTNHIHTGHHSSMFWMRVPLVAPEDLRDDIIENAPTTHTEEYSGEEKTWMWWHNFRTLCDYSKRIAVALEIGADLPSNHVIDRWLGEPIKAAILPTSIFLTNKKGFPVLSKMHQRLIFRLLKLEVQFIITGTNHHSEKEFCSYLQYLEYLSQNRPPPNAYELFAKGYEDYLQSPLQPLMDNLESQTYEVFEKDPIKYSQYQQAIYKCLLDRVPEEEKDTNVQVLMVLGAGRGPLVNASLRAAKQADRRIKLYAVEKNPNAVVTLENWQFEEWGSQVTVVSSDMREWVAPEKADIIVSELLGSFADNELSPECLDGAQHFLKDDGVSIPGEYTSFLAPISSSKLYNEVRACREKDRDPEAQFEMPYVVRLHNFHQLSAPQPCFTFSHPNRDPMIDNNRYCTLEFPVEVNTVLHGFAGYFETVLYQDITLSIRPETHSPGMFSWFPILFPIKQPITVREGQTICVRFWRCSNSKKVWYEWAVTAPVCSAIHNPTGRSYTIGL
T1 sequence (Q9BQA1 whole entry partner): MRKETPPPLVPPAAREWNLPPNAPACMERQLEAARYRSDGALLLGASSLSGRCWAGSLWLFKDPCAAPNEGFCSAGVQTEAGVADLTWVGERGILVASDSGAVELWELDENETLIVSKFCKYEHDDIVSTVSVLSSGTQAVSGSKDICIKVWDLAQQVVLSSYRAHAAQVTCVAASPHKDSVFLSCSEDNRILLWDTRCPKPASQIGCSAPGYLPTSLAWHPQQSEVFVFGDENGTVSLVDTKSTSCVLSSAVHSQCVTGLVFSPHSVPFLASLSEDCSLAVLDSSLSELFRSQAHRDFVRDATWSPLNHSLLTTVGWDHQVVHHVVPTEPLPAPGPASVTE

SMILES | IC50 (PRMT5-MEP50 enzyme) [nM] | IC50 [1, 2] [nM] | IC50 [1, 3] [nM]
Nc1ncnc2c1ccn2[C@@H]1O[C@H](COc2ccc3cccnc3c2)[C@@H](O)[C@H]1O [Compound 1] | 12.6 | 79.4 | 
Nc1ncnc2c1ccn2[C@@H]1C[C@H](COc2ccc3cccnc3c2)[C@@H](O)[C@H]1O [Compound 46] | 63.1 | 126 | 
Nc1ncnc2c1ccn2[C@@H]1C[C@H](CCc2ccc3ccc(NCC4CC4)nc3c2)[C@@H](O)[C@H]1O [Compound 74] | 0.126 |  | 0.398
Nc1ccc2ccc(CC[C@H]3C[C@@H](n4ccc5c(N)ncnc54)[C@H](O)[C@@H]3O)cc2n1 [Compound 76] |  |  | 0.158
Nc1ncnc2c1ccn2[C@@H]1C[C@H](OCc2ccc3ccc(NCC4CC4)nc3c2)[C@@H](O)[C@H]1O [Compound 160] | 0.794 | 15.8 | 
CNc1ncnc2c1ccn2[C@@H]1C[C@H](CCc2ccc3ccc(NCC(F)(F)F)nc3c2)[C@@H](O)[C@H]1O [Compound 162] | 7.94 | 158 | 
Nc1ncnc2c1ccn2[C@@H]1C[C@H](COc2ccc3ccc(NCC4CC4)nc3c2)[C@@H](O)[C@H]1O [Compound 224] | < 0.2 |  | 
CNc1ncnc2c1ccn2[C@@H]1C[C@H](COc2ccc3ccc(NCC4CC4)nc3c2)[C@@H](O)[C@H]1O [Compound 225] | 6.31 |  | 
CNc1ncnc2c1ccn2[C@@H]1C[C@H](COc2ccc3cc(Cl)c(N)nc3c2)[C@@H](O)[C@H]1O [Compound 227] | 1.26 |  | 
COc1ncnc2c1ccn2[C@@H]1C[C@H](COc2ccc3cc(Cl)c(N)nc3c2)[C@@H](O)[C@H]1O [Compound 228] | 5.01 |  | 
CNc1ncnc2c1ccn2[C@@H]1O[C@H](CCc2ccc3cc(F)c(N)nc3c2)[C@@H](O)[C@H]1O [Compound 229] | 39.8 |  | 
COc1ncnc2c1ccn2[C@@H]1O[C@H](CCc2ccc3cc(F)c(N)nc3c2)[C@@H](O)[C@H]1O [Compound 230] | 631 |  | 
CNc1ncnc2c1ccn2[C@@H]1O[C@H](COc2ccc3cc(Br)c(N)nc3c2)[C@@H](O)[C@H]1O [Compound 232] | 3.98 |  | 
Nc1nc2cc(OC[C@H]3O[C@@H](n4ccc5c(O)ncnc54)[C@H](O)[C@@H]3O)ccc2cc1Br [Compound 234] | 794 |  | 
Nc1nc2cc(CC[C@H]3C[C@@H](n4ccc5cnccc54)[C@H](O)[C@@H]3O)ccc2cc1Cl [Compound 247] | 0.794 |  | 

Now from value to compound, other results behind:

IC50 (PRMT5-MEP50 enzyme) [nM] | IC50 [1, 2] [nM] | SMILES | IC50 [1, 3] [nM]
 | 0.251 | Nc1nc2cc(CC[C@H]3C[C@@H](n4ccc5c(N)ncnc54)[C@H](O)[C@@H]3O)ccc2cc1Br [Compound 80] | 
200 | 31.6 | Nc1ncnc2c1ccn2[C@@H]1C[C@H](CCc2ccc3cc(Br)c(NC4CC4)nc3c2)[C@@H](O)[C@H]1O [Compound 153] | 
0.316 | 2.51 | Nc1nc2cc(CC[C@H]3C[C@@H](n4ccc5c(N)ncnc54)[C@H](O)[C@@H]3O)ccc2cc1C(F)(F)F [Compound 154] | 
158 | 251 | Nc1ncnc2c1ccn2[C@@H]1C[C@H](CCc2ccc3cc(F)c(NCC4CC4)nc3c2)[C@@H](O)[C@H]1O [Compound 155] | 
0.316 | < 1.17 | Nc1ncnc2c1ccn2[C@@H]1C[C@H](CCc2ccc3ccc(NC4CCC4)nc3c2)[C@@H](O)[C@H]1O [Compound 156] | 
631 | 501 | CNc1nc2cc(CC[C@H]3C[C@@H](n4ccc5c(N)ncnc54)[C@H](O)[C@@H]3O)ccc2cc1F [Compound 157] | 
0.126 | 3.16 | Nc1nc2cc(CC[C@H]3O[C@@H](n4ccc5c(N)ncnc54)[C@H](O)[C@@H]3O)ccc2cc1Cl [Compound 158] | 
0.126 | < 1.17 | Nc1nc2cc(CC[C@H]3C[C@@H](n4ccc5c(N)ncnc54)[C@H](O)[C@@H]3O)ccc2cc1F [Compound 159] | 
1.58 | 39.8 | Nc1ncnc2c1ccn2[C@@H]1C[C@H](CCc2ccc3ccc(Nc4ccc(Cl)cc4)nc3c2)[C@@H](O)[C@H]1O [Compound 161] | 
0.794 | 10 | CNc1ccc2ccc(CC[C@H]3C[C@@H](n4ccc5c(NC)ncnc54)[C@H](O)[C@@H]3O)cc2n1 [Compound 178] | 
0.631 | 5.01 | CNc1ncnc2c1ccn2[C@@H]1C[C@H](CCc2ccc3ccc(NC4CC4)nc3c2)[C@@H](O)[C@H]1O [Compound 179] | 
1.26 | 39.8 | CNc1ccc2ccc(CC[C@H]3C[C@@H](n4ccc5c(OC)ncnc54)[C@H](O)[C@@H]3O)cc2n1 [Compound 180] | 
1.26 | 39.8 | COc1ncnc2c1ccn2[C@@H]1C[C@H](CCc2ccc3ccc(NC4CC4)nc3c2)[C@@H](O)[C@H]1O [Compound 181] | 
0.631 |  | Nc1nc2cc(CC[C@H]3O[C@@H](n4ccc5c(N)ncnc54)[C@H](O)[C@@H]3O)ccc2cc1F [Compound 231] | 
< 0.2 |  | Nc1nc2cc(OC[C@H]3O[C@@H](n4ccc5c(N)ncnc54)[C@H](O)[C@@H]3O)ccc2cc1Br [Compound 233] | 
0.2 |  | Nc1nc2cc(CC[C@H]3O[C@@H](n4ccc5c(N)ncnc54)[C@H](O)[C@@H]3O)ccc2cc1Br [Compound 235] | 
< 0.2 |  | Nc1nc2cc(OC[C@H]3C[C@@H](n4ccc5c(N)ncnc54)[C@H](O)[C@@H]3O)ccc2cc1Br [Compound 236] | 
3.16 |  | Nc1nc2cc(CC[C@H]3O[C@@H](n4ccc5c(N)ncnc54)[C@H](O)[C@@H]3O)ccc2cc1C(F)(F)F [Compound 244] | 
0.631 |  | Nc1nc2cc(CC[C@H]3C[C@@H](n4ccc5c(N)nccc54)[C@H](O)[C@@H]3O)ccc2cc1Br [Compound 252] | 
